# According to patent EP0048614B1, “1-N-acylated and 1-N-alkylated derivatives of 4-0-substituted -2-deoxystreptamine aminoglycosides” (ELI LILLY AND COMPANY, priority 1980, dated 1982):
# “And” between values parts separate entries of the source, which are not always exact repeats. Identical values can stand only once. Like-named read-outs stand apart in the source and are kept apart here.
# Columns and labels:
# [1] = tested on: Staphylococcus aureus 3055; test: Subcutaneous therapy of experimental bacterial infection in mice (ED50); type: in vivo; details: Staphylococcus aureus, 3055, sc
# Method: Table II illustrates the effective dose (ED50, the effective dose to protect 50 percent of the test animals) for representative compounds of this invention against an experimental bacterial infection in mice.
# The ED50 values were determined as described by W. E. Wick et al., Journal of Bacteriology, 81 [No. 2], 233-235 (1961).
# B. subtilis X12 = test: Bioautography of thin layer chromatography plate; type: cell-based; details: TLC plate of the reaction mixture against B. subtilis X12
# Method: Apramycin (54 mg, 0.1 mmol) was dissolved in water (1 ml). Zinc acetate dihydrate (100 mg, 0.4 mmol) was added to this solution and the mixture was briefly sonicated to disperse crystals of zinc acetate. The ' mixture was diluted with dimethylformamide (5 ml), 1-iodo-n-butane (0.115 ml), 1 mmol) was added and this reaction mixture was stirred at room temperature for 4 days.
# [2] = tested on: Enterobacter aerogenes X68; test: MIC, standard agar dilution test; type: cell-based
# Excerpt: (§1) The antibacterial activity of the deprotected compounds of this invention is illustrated by the following in vitro and in vivo test data obtained with representative compounds. In Table I, the minimum inhibitory concentration (MIC) for representative compounds against a wide range of gram-positive and gram-negative bacteria is presented. The MIC values were obtained by the standard agar dilution test.
# Escherichia coli N10 = test: MIC, standard agar dilution test; type: cell-based; details: agar dilution
# Excerpt: as §1
# Hemophilus influenzae 76 = test: MIC, standard agar dilution test; type: cell-based
# Excerpt: as §1
# [3] = tested on: Hemophilus influenzae C.L.; test: MIC, standard agar dilution test; type: cell-based; details: Hemophilus influenzae C.L.
# Excerpt: as §1
# Proteus rettgeri PR7 = test: MIC, standard agar dilution test; type: cell-based
# Excerpt: as §1
# Serratia marcescens X99 = test: MIC, standard agar dilution test; type: cell-based
# Excerpt: as §1
# [4] = tested on: Staphylococcus aureus X1.1; test: MIC, standard agar dilution test; type: cell-based; details: Staphylococcus aureus X1.1, agar dilution
# Excerpt: as §1
# [5] = tested on: Staphylococcus aureus X400; test: MIC, standard agar dilution test; type: cell-based
# Excerpt: as §1
# Escherichia coli X563 = test: Standard disc-plate method, zone of inhibition against apramycin-resistant strain; type: cell-based; details: 15 mcg/disc; apramycin-resistant E. coli X563; one value for each of two test runs per compound; listed as 2
# Excerpt: Table III, shown below, illustrates the in vitro activity of 1-N-(S-y-amino-a-hydroxybutyryl)apramycin, 1-N-(RS-y-amino-a-hydroxybutyryl)apramycin, and 1-N-(S-y-amino-a-hydroxybutyryl)nebramine against an apramycin resistant strain of E. coli. The results below were obtained using the standard disc-plate method. The numerical values are the diameters in millimeters of the zones of inhibition observed against this bacterium. Compounds substituted with the y-amino-a-hydroxybutyryl and analogous side chains are useful in treating infections caused by apramycin resistant bacteria such as the one above.
# The test organism (E. coli X563) used in the experiments summarized in Table III is resistant to apramycin due to a 3-N-acetyltransferase which enzymatically inactivates apramycin.
# [6] = tested on: Bordetella bronchiseptica 16; test: MIC, standard agar dilution test; type: cell-based; details: Bordetella bronchiseptica 16; agar dilution; read-out: Minimum Inhibitory Concentration
# Excerpt: as §1
# [7] = tested on: Citrobacter freundii CF17; test: MIC, standard agar dilution test; type: cell-based; details: Citrobacter freundii CF17; agar dilution; read-out: Minimum Inhibitory Concentration
# Excerpt: as §1
# [8] = tested on: Enterobacter aerogenes C32; test: MIC, standard agar dilution test; type: cell-based; details: Klebsiella aerogenes; Enterobacter aerogenes C32; agar dilution; read-out: Minimum Inhibitory Concentration
# Excerpt: as §1
# [9] = tested on: Enterobacter aerogenes EB17; test: MIC, standard agar dilution test; type: cell-based; details: Klebsiella aerogenes; Enterobacter aerogenes EB17; agar dilution; read-out: Minimum Inhibitory Concentration
# Excerpt: as §1
# [10] = tested on: Enterobacter cloacae 265A; test: MIC, standard agar dilution test; type: cell-based; details: Enterobacter cloacae 265A; agar dilution; read-out: Minimum Inhibitory Concentration
# Excerpt: as §1
# Enterobacter cloacae EB5 = test: MIC, standard agar dilution test; type: cell-based; details: Enterobacter cloacae EB5; agar dilution; read-out: Minimum Inhibitory Concentration
# Excerpt: as §1
# Escherichia coli EC14 = test: MIC, standard agar dilution test; type: cell-based; details: Escherichia coli EC14; agar dilution; read-out: Minimum Inhibitory Concentration
# Excerpt: as §1
# Escherichia coli TEM = test: MIC, standard agar dilution test; type: cell-based; details: read-out: Minimum Inhibitory Concentration
# Excerpt: as §1
# [11] = tested on: Klebsiella pneumoniae KAE; test: MIC, standard agar dilution test; type: cell-based; details: Klebsiella pneumoniae KAE; agar dilution; read-out: Minimum Inhibitory Concentration
# Excerpt: as §1
# [12] = tested on: Klebsiella pneumoniae X26; test: MIC, standard agar dilution test; type: cell-based; details: Klebsiella pneumoniae X26; agar dilution; read-out: Minimum Inhibitory Concentration
# Excerpt: as §1
# Proteus inconstans PR33 = test: MIC, standard agar dilution test; type: cell-based; details: Providencia alcalifaciens; Proteus inconstans PR33; agar dilution; read-out: Minimum Inhibitory Concentration
# Excerpt: as §1
# Proteus morganii PR15 = test: MIC, standard agar dilution test; type: cell-based; details: Morganella morganii; Proteus morganii PR15; agar dilution; read-out: Minimum Inhibitory Concentration
# Excerpt: as §1
# Proteus rettgeri C24 = test: MIC, standard agar dilution test; type: cell-based; details: Providencia rettgeri; Proteus rettgeri C24; agar dilution; read-out: Minimum Inhibitory Concentration
# Excerpt: as §1
# [13] = tested on: Pseudomonas aeruginosa Ps18; test: MIC, standard agar dilution test; type: cell-based; details: Pseudomonas aeruginosa Ps18; agar dilution; read-out: Minimum Inhibitory Concentration
# Excerpt: as §1
# [14] = tested on: Pseudomonas aeruginosa X239; test: MIC, standard agar dilution test; type: cell-based; details: Pseudomonas aeruginosa X239; agar dilution; read-out: Minimum Inhibitory Concentration
# Excerpt: as §1
# [15] = tested on: Pseudomonas aeruginosa X528; test: MIC, standard agar dilution test; type: cell-based; details: Pseudomonas aeruginosa X528; agar dilution; read-out: Minimum Inhibitory Concentration
# Excerpt: as §1
# [16] = tested on: Salmonella heidelberg X514; test: MIC, standard agar dilution test; type: cell-based; details: Salmonella enterica; Salmonella heidelberg X514; agar dilution; read-out: Minimum Inhibitory Concentration
# Excerpt: as §1
# [17] = tested on: Salmonella typhimurium 1335; test: MIC, standard agar dilution test; type: cell-based; details: Salmonella enterica; Salmonella typhimurium 1335; agar dilution; read-out: Minimum Inhibitory Concentration
# Excerpt: as §1
# Serratia marcescens SE3 = test: MIC, standard agar dilution test; type: cell-based; details: Serratia marcescens SE3; agar dilution; read-out: Minimum Inhibitory Concentration
# Excerpt: as §1
# Shigella sonnei N9 = test: MIC, standard agar dilution test; type: cell-based; details: read-out: Minimum Inhibitory Concentration
# Excerpt: as §1
# [18] = tested on: Staphylococcus aureus S13E; test: MIC, standard agar dilution test; type: cell-based; details: read-out: Minimum Inhibitory Concentration
# Excerpt: as §1
# [19] = tested on: Staphylococcus aureus V41; test: MIC, standard agar dilution test; type: cell-based; details: Staphylococcus aureus V41; agar dilution; read-out: Minimum Inhibitory Concentration
# Excerpt: as §1
# [20] = tested on: Staphylococcus epidermidis EPI1; test: MIC, standard agar dilution test; type: cell-based; details: Staphylococcus epidermidis EPI1; agar dilution; read-out: Minimum Inhibitory Concentration
# Excerpt: as §1
# [21] = tested on: Staphylococcus epidermidis EPI2; test: MIC, standard agar dilution test; type: cell-based; details: Staphylococcus epidermidis EPI2; agar dilution; read-out: Minimum Inhibitory Concentration
# Excerpt: as §1
# [22] = tested on: Streptococcus group D 9960; test: MIC, standard agar dilution test; type: cell-based; details: D9960; Streptococcus group D 9960; agar dilution; read-out: Minimum Inhibitory Concentration
# Excerpt: as §1
# [23] = tested on: Streptococcus group D X66; test: MIC, standard agar dilution test; type: cell-based; details: DX66; Streptococcus group D X66; agar dilution; read-out: Minimum Inhibitory Concentration
# Excerpt: as §1
# [24] = tested on: Streptococcus pneumoniae Park I; test: MIC, standard agar dilution test; type: cell-based; details: Streptococcus pneumoniae Park I; agar dilution; read-out: Minimum Inhibitory Concentration
# Excerpt: as §1
# [25] = tested on: Streptococcus pyogenes C203; test: MIC, standard agar dilution test; type: cell-based; details: Streptococcus pyogenes C203; agar dilution; read-out: Minimum Inhibitory Concentration
# Excerpt: as §1
compound,measurement,setting,value
CNC1C(OC2OC(CO)C(N)C(O)C2O)OC2CC(N)C(OC3C(N)CC(NC(=O)C(O)CCN)C(O)C3O)OC2C1O (stereo not drawn),ED50,"[1]; read-out: Effective Dose (ED50), mg/kg × 2 subcutaneous doses at 1 and 5 hours post infection, mice challenged with 331 LD50's",7.1 mg/kg
NCC[C@H](O)C(=O)N[C@@H]1C[C@H](N)[C@@H](O[C@H]2O[C@H](CN)[C@@H](O)C[C@H]2N)[C@H](O)[C@H]1O,ED50,"[1]; mg/kg × 2 subcutaneous doses at 1 and 5 hours post infection, mice challenged with 1,794 LD50's, read-out: Effective Dose (ED50)",8.75 mg/kg
CCCCNC1CC(N)C(OC2OC3C(CC2N)OC(OC2OC(CO)C(N)C(O)C2O)C(NC)C3O)C(O)C1O (stereo not drawn) [1-N-(n-butyl)apramycin],zone of inhibition (bioautography),B. subtilis X12,good zone of inhibition
C=CCNC1CC(N)C(OC2OC3C(CC2N)OC(OC2OC(CO)C(N)C(O)C2O)C(NC)C3O)C(O)C1O (stereo not drawn) [1-N-allylapramycin],zone of inhibition (bioautography),B. subtilis X12,good zone of inhibition
CNC1C(OC2OC(CO)C(N)C(O)C2O)OC2CC(N)C(OC3C(N)CC(NCc4ccccc4)C(O)C3O)OC2C1O (stereo not drawn) [1-N-benzylapramycin],zone of inhibition (bioautography),B. subtilis X12,zone of inhibition
CCCCNC1CC(N)C(O)C(O)C1OC1OC2C(CC1N)OC(OC1OC(CO)C(N)C(O)C1O)C(NC)C2O (stereo not drawn) [3-N-(n-butyl)apramycin],zone of inhibition (bioautography),B. subtilis X12,not
"CNC1C(OC2OC(CO)C(N)C(O)C2O)OC2CC(N)C(OC3C(N)CC(NC(=O)C(O)CCN)C(O)C3O)OC2C1O (stereo not drawn) [Test Compound 2, 1-N-(RS-γ-amino-α-hydroxybutyryl)apramycin]",Minimum Inhibitory Concentration,[2]; Enterobacter aerogenes X68,16 µg/mL
same,Minimum Inhibitory Concentration,Escherichia coli N10; Escherichia coli N10,16 µg/mL
same,Minimum Inhibitory Concentration,Hemophilus influenzae 76; Hemophilus influenzae 76,32 µg/mL
same,Minimum Inhibitory Concentration,[3],32 µg/mL
same,Minimum Inhibitory Concentration,Proteus rettgeri PR7; Proteus rettgeri PR7,4 µg/mL
same,Minimum Inhibitory Concentration,Serratia marcescens X99; Serratia marcescens X99,16 µg/mL
same,Minimum Inhibitory Concentration,[4],8 µg/mL
same,Minimum Inhibitory Concentration,[5]; Staphylococcus aureus X400,64 µg/mL
same,Zone of Inhibition (diameter in mm),Escherichia coli X563,12.5 mm and 13.6 mm
"NCC[C@H](O)C(=O)N[C@@H]1C[C@H](N)[C@@H](O[C@H]2O[C@H](CN)[C@@H](O)C[C@H]2N)[C@H](O)[C@H]1O [Test Compound 5, 1-N-(S-γ-amino-α-hydroxybutyryl)nebramine]",MIC,[6],32 µg/mL
same,MIC,[7],16 µg/mL
same,MIC,[8],8 µg/mL
same,MIC,[9],8 µg/mL
same,MIC,"[2]; Klebsiella aerogenes, Enterobacter aerogenes X68, read-out: Minimum Inhibitory Concentration",8 µg/mL
same,MIC,[10],32 µg/mL
same,MIC,Enterobacter cloacae EB5,16 µg/mL
same,MIC,Escherichia coli EC14,16 µg/mL
same,MIC,"Escherichia coli N10; Escherichia coli, N10, Escherichia coli N10, read-out: Minimum Inhibitory Concentration",8 µg/mL
same,MIC,Escherichia coli TEM,2 µg/mL
same,MIC,"Hemophilus influenzae 76; Haemophilus influenzae, Hemophilus influenzae 76, read-out: Minimum Inhibitory Concentration",16 µg/mL
same,MIC,"[3]; Haemophilus influenzae, read-out: Minimum Inhibitory Concentration",16 µg/mL
same,MIC,[11],8 µg/mL
same,MIC,[12],4 µg/mL
same,MIC,Proteus inconstans PR33,8 µg/mL
same,MIC,Proteus morganii PR15,32 µg/mL
same,MIC,Proteus rettgeri C24,8 µg/mL
same,MIC,"Proteus rettgeri PR7; Providencia rettgeri, Proteus rettgeri PR7, read-out: Minimum Inhibitory Concentration",8 µg/mL
same,MIC,[13],32 µg/mL
same,MIC,[14],32 µg/mL
same,MIC,[15],64 µg/mL
same,MIC,[16],16 µg/mL
same,MIC,[17],8 µg/mL
same,MIC,Serratia marcescens SE3,16 µg/mL
same,MIC,"Serratia marcescens X99; Serratia marcescens X99, read-out: Minimum Inhibitory Concentration",8 µg/mL
same,MIC,Shigella sonnei N9,16 µg/mL
same,MIC,[18],8 µg/mL
same,MIC,[19],8 µg/mL
same,MIC,[4]; read-out: Minimum Inhibitory Concentration,8 µg/mL
same,MIC,"[5]; Staphylococcus aureus X400, read-out: Minimum Inhibitory Concentration",64 µg/mL
same,MIC,[20],8 µg/mL
same,MIC,[21],4 µg/mL
same,MIC,[22],> 128 µg/mL
same,MIC,[23],> 128 µg/mL
same,MIC,[24],16 µg/mL
same,MIC,[25],16 µg/mL
